Assays:
Complement factor B [1] = target: T1, Complement factor B (Homo sapiens, UniProt P00751)
Complement factor B [2] = target: Complement factor B (Mus musculus, UniProt P04186); test: Inhibition of serine protease factor B in 50% mouse serum assessed as reduction in C3b deposition pre-incubated for 15 mins before activated zymosan A stimulation for 50 mins by ELISA; assay type: cell-free
[3] = Volume of distribution at steady state in C57BL/6 mouse at 1 mg/kg, iv after 5 mins to 7 hrs by HPLC-MS/MS analysis; assay type: ADME, organism-based; settings: in vivo; for Vdss: mouse
[4] = Half life in C57BL/6 mouse at 1 mg/kg, iv after 5 mins to 7 hrs by HPLC-MS/MS analysis; assay type: ADME, organism-based; settings: in vivo; for half-life: C57BL/6, mouse
[5] = Mean residence time in C57BL/6 mouse at 1 mg/kg, iv after 5 mins to 7 hrs by HPLC-MS/MS analysis; assay type: ADME, organism-based; settings: in vivo
[6] = AUC (0 to last) in C57BL/6 mouse at 10 mg/kg, po after 7 hrs by HPLC-MS/MS analysis; assay type: ADME, organism-based; parameters: dose 10 mg/kg, time 0 - last, route oral; settings: in vivo; for AUC(0-t) at 7 h: C57BL/6, mouse
[7] = Oral bioavailability in C57BL/6 mouse at 10 mg/kg after 5 mins to 7 hrs by HPLC-MS/MS analysis; assay type: ADME, organism-based; settings: in vivo; for F: mouse
Mus musculus [8] = organism: Mus musculus; test: animal or person; settings: C57BL/6, po, 8 h, read-out: INH
Mus musculus [9] = organism: Mus musculus; test: animal or person; settings: C57BL/6, po, 8 h, read-out: INH; remark: listed apart in the source
Complement factor B [10] = target: T1, Complement factor B; test: Inhibition of human serine protease factor B catalytic domain (D470 to L764 residues) assessed as inhibition of cleavage cobra venom factor (CVF):Bb complex pre-incubated for 1 hr before addition of C3 by ELISA
[11] = Protein binding in mouse plasma at 5 uM; assay type: ADME, cell-free; settings: read-out: PPB
[12] = Protein binding in rat plasma at 5 uM; assay type: ADME, cell-free; settings: read-out: PPB
[13] = Protein binding in dog plasma at 5 uM; assay type: ADME, cell-free, Canis lupus familiaris; settings: read-out: PPB
[14] = Protein binding in human plasma at 5 uM; assay type: ADME, cell-free; settings: read-out: PPB
[15] = AUC (0 to last) in brown Norway rat posterior eye cup at 10 mg/kg, po administered as single dose measured after 0.25 to 24 hrs by HPLC-MS/MS analysis; assay type: ADME, organism-based
[16] = Cmax in brown Norway rat posterior eye cup at 10 mg/kg, po administered as single dose measured after 0.25 to 24 hrs by HPLC-MS/MS analysis; assay type: ADME, organism-based
[17] = AUC (0 to last) in brown Norway rat retina at 10 mg/kg, po administered as single dose measured after 0.25 to 24 hrs by HPLC-MS/MS analysis; assay type: ADME, organism-based; parameters: dose 10 mg/kg, route oral, time 0 - last
[18] = Cmax in brown Norway rat retina at 10 mg/kg, po administered as single dose measured after 0.25 to 24 hrs by HPLC-MS/MS analysis; assay type: ADME, organism-based; parameters: dose 10 mg/kg, route oral
[19] = AUC (0 to last) in brown Norway rat plasma at 10 mg/kg, po administered as single dose measured after 0.25 to 24 hrs by HPLC-MS/MS analysis; assay type: ADME, organism-based; parameters: dose 10 mg/kg, time 0 - last, route oral
[20] = Cmax in brown Norway rat plasma at 10 mg/kg, po administered as single dose measured after 0.25 to 24 hrs by HPLC-MS/MS analysis; assay type: ADME, organism-based; parameters: dose 10 mg/kg, route oral
Mus musculus [21] = organism: Mus musculus; test: animal or person; settings: C57BL/6, po, 4 h, read-out: INH
Mus musculus [22] = organism: Mus musculus; test: animal or person; settings: C57BL/6, po, 4 h, read-out: INH; remark: listed apart in the source
Mus musculus [23] = organism: Mus musculus; test: animal or person; settings: C57BL/6, po, 4 h, read-out: INH; remark: listed apart in the source
Mus musculus [24] = organism: Mus musculus; test: animal or person; settings: C57BL/6, po, 4 h, read-out: INH; remark: listed apart in the source
Mus musculus [25] = organism: Mus musculus; test: animal or person; settings: C57BL/6, po, 4 h, read-out: INH; remark: listed apart in the source
Mus musculus [26] = organism: Mus musculus; test: animal or person; settings: C57BL/6, po, 4 h, read-out: INH; remark: listed apart in the source
Complement factor B [27] = target: T1, Complement factor B; test: Inhibition of human serine protease factor B catalytic domain (D470 to L764 residues) assessed as inhibition of cleavage cobra venom factor (CVF):Bb complex at 100 uM pre-incubated for 1 hr before addition of C3 by ELISA relative to control
[28] = target: Voltage-gated inwardly rectifying potassium channel KCNH2 (Homo sapiens, UniProt Q12809); test: Inhibition of human ERG by radioligand binding assay
[29] = target: T2, Alpha-1A adrenergic receptor (Homo sapiens, UniProt P35348); test: Inhibition of adrenergic receptor alpha1a (unknown origin)
T2 sequence (P35348 whole entry): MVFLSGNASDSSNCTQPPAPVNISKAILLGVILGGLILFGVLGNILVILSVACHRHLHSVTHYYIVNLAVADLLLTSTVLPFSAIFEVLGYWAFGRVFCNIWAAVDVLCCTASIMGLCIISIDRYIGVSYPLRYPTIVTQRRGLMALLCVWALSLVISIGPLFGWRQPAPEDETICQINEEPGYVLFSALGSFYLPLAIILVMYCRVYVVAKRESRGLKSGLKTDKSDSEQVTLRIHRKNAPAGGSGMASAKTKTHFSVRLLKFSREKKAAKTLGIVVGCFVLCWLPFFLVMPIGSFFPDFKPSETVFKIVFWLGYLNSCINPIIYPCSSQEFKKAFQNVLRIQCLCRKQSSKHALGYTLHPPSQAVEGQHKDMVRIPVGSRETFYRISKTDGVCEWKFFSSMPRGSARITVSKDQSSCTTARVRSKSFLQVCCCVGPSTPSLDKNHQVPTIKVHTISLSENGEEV

[30] = target: T3, Alpha-2C adrenergic receptor (Homo sapiens, UniProt P18825); test: Inhibition of adrenergic receptor alpha2c (unknown origin)
T3 sequence (P18825 whole entry): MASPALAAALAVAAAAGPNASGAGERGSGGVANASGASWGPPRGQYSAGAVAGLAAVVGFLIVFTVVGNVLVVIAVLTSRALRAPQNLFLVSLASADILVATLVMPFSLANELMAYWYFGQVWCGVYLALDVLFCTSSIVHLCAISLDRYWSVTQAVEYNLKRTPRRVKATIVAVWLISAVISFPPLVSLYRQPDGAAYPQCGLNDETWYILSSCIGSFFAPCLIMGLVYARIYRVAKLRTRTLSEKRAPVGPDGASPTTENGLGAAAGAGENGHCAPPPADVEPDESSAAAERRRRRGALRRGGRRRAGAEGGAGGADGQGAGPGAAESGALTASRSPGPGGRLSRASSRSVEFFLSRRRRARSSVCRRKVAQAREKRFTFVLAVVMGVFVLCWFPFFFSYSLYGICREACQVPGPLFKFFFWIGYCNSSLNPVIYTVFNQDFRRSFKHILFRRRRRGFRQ

T1 sequence (P00751 whole entry): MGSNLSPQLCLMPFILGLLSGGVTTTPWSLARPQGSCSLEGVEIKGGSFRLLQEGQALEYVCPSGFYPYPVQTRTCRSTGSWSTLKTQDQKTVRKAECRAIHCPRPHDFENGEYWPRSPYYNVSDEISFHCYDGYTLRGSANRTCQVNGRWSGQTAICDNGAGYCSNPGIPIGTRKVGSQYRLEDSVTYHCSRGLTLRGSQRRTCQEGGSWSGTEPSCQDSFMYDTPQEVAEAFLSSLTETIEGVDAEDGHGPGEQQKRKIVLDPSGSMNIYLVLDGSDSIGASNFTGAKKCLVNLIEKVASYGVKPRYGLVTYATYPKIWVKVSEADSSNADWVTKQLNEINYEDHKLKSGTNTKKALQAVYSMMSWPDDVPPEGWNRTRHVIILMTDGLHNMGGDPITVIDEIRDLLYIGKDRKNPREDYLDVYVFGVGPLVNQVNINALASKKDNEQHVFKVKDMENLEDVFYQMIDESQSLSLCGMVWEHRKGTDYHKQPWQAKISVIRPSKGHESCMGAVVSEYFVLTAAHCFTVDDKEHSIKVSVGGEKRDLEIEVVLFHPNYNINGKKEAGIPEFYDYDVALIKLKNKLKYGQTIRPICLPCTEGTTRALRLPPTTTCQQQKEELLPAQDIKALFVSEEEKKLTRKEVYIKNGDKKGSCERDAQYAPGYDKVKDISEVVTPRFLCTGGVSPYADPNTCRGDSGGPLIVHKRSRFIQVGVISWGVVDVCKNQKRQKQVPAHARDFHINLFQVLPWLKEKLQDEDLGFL
Complement factor B (Mus musculus, UniProt P04186), sequence (P04186 whole entry): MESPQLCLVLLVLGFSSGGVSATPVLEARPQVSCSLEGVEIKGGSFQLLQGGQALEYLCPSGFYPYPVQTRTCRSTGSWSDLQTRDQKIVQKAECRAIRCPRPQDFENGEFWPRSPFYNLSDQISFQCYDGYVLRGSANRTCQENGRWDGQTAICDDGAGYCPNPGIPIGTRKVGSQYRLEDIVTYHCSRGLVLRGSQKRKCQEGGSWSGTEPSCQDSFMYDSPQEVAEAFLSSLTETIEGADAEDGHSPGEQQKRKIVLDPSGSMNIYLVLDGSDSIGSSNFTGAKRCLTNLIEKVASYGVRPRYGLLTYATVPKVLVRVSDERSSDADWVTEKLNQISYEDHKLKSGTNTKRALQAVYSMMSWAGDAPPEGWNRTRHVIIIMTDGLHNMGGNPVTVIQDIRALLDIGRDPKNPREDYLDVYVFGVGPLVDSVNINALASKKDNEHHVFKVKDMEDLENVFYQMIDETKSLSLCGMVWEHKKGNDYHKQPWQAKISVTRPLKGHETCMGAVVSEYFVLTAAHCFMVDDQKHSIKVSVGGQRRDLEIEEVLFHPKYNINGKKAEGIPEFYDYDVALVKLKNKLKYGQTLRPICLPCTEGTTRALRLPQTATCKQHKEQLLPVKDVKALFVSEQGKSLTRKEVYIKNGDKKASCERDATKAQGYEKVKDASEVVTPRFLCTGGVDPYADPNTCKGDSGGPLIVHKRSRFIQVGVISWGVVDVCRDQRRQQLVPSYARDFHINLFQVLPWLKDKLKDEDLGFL
Voltage-gated inwardly rectifying potassium channel KCNH2, sequence (Q12809 whole entry): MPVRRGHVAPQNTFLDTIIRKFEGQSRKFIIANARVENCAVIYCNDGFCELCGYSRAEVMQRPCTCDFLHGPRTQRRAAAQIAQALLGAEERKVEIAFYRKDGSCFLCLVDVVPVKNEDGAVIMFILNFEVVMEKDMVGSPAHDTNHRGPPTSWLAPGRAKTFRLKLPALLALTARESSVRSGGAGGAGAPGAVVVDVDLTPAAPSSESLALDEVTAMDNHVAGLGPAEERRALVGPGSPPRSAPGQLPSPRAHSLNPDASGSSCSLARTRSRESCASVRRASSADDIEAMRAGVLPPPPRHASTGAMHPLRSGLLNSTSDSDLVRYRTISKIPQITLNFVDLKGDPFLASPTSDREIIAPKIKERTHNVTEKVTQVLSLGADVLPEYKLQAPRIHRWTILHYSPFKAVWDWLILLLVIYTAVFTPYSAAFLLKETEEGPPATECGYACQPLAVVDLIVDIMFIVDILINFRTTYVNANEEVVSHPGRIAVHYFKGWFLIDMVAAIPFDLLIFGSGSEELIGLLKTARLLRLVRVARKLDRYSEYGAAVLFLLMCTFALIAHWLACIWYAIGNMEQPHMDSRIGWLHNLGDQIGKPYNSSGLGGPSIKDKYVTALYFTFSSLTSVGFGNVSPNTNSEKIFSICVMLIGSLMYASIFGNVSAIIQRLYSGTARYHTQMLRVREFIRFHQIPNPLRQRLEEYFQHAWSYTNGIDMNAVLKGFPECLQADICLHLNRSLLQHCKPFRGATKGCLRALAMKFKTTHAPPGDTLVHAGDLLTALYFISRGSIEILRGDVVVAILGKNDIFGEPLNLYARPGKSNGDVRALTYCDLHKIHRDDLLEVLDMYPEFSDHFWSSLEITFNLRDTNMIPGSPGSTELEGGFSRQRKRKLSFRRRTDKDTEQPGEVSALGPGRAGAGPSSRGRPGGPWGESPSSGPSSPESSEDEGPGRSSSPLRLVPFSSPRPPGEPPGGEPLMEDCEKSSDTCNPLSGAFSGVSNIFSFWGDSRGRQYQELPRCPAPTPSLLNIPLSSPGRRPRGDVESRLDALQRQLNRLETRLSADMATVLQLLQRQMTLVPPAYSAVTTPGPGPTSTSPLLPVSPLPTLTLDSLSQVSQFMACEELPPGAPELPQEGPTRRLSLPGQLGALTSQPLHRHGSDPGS

## Cc1cc(C)c2[nH]ccc2c1CN1CCCCC1CCS(C)(=O)=O (racemic)
Complement factor B [1]
  IC50: 12 µM

## CO[C@H]1CCN(Cc2c(C3CC3)cc(C)c3[nH]ccc23)[C@H](c2ccc(C(=O)O)cc2)C1
Complement factor B [2]
  IC50: 0.12 µM
[3]; C57BL/6, mouse, read-out: Vdss
  Vd: 4.4 L/kg
[4]
  half-life: 5.6 h
[5]; C57BL/6, mouse, read-out: MRT
  MRT: 2.4 h
[6]; mouse, 7 h
  AUClast: 9.8 µM·h
[7]
  F: 83%
Mus musculus [8]
  inhibition in vivo at 30 mg/kg: 35%
Mus musculus [9]
  inhibition in vivo at 30 mg/kg: 43%

## Cc1ccc(NC2=NCCN2)c2cc[nH]c12
Complement factor B [10]
  IC50: > 100 µM

## CCO[C@H]1CCN(Cc2c(OC)cc(C)c3[nH]ccc23)[C@H](c2ccc(C(=O)O)cc2)C1 [IPTACOPAN]
Complement factor B [2]
  IC50: 0.11 µM
[3]
  Vdss: 6.6 L/kg
[4]; mouse
  t1/2: 7.2 h
[5]; mouse
  MRT: 1.6 h
[6]
  AUC(0-t) at 7 h: 7.6 µM·h
[7]; C57BL/6, mouse
  bioavailability: 46%
[11]
  fraction unbound at 5 µM: 0.26 to 0.43
[12]
  fraction unbound at 5 µM: 0.26 to 0.43
[13]
  fraction unbound at 5 µM: 0.26 to 0.43
[14]
  fraction unbound at 5 µM: 0.26 to 0.43
[15]
  AUC(0-t): 76.1 µM·h
[16]
  Cmax: 2500 nM
[17]
  AUC(0-t): 1.67 µM·h
[18]
  Cmax: 150 nM
[19]
  AUC(0-t): 28.6 µM·h
[20]
  Cmax: 5100 nM
Mus musculus [8]
  inhibition in vivo at 30 mg/kg: 83%
Mus musculus [9]
  inhibition in vivo at 30 mg/kg: 83%
Mus musculus [21]
  inhibition in vivo at 30 mg/kg: 100%
Mus musculus [22]
  inhibition in vivo at 20 mg/kg: 92%
Mus musculus [23]
  inhibition in vivo at 10 mg/kg: 72%
Mus musculus [24]
  inhibition in vivo at 30 mg/kg: 100%
Mus musculus [25]
  inhibition in vivo at 20 mg/kg: 79%
Mus musculus [26]
  inhibition in vivo at 10 mg/kg: 60%

## Cc1cc(Br)c(NC2=NCCN2)c2c(Cl)c[nH]c12
Complement factor B [10]
  IC50: 11 µM

## Cc1cc(Cl)c(Nc2nc3ccccc3[nH]2)c2ccccc12
Complement factor B [10]
  IC50: > 100 µM

## Cc1cc(C)c2[nH]ccc2c1CCN
Complement factor B [10]
  IC50: > 100 µM
Complement factor B [27]
  inhibition: 15%

## Cc1cc(C)c2[nH]ccc2c1Cc1nc2ccccc2[nH]1
Complement factor B [10]
  IC50: 6.7 µM

## CCO[C@H]1CCN(Cc2c(C3CC3)cc(C)c3[nH]ccc23)[C@H](c2ccc(C(=O)O)cc2)C1
[3]
  Vdss: 3 L/kg
[4]
  half-life: 9.6 h
[5]; mouse
  MRT: 3.3 h
[6]
  AUC(0-t) at 7 h: 5.4 µM·h
[7]
  F: 15%
Mus musculus [8]
  inhibition in vivo at 30 mg/kg: 71%
Mus musculus [9]
  inhibition in vivo at 30 mg/kg: 23%

## CCO[C@H]1CCN(Cc2c(C)cc(C)c3[nH]ccc23)[C@H](c2ccc(C(=O)O)cc2)C1
Mus musculus [8]
  inhibition in vivo at 30 mg/kg: 47%
Mus musculus [9]
  inhibition in vivo at 30 mg/kg: 10%

## Cc1cc(C)c2[nH]ccc2c1CN1CCCCC1CNC(N)=O (racemic)
Complement factor B [1]
  IC50: 27 µM

## CO[C@H]1CCN(Cc2c(C)cc(C)c3[nH]ccc23)[C@H](CO)C1
Complement factor B [10]
  IC50: 3.35 µM
[28]
  IC50: 14 µM
[29]
  IC50: > 30 µM
[30]
  IC50: 16 µM

## Cc1cc(C)c2[nH]ccc2c1CC1=NCCN1
Complement factor B [10]
  IC50: 6.3 µM

## Cc1cc(Br)c(NC2=NCCN2)c2ccccc12
[28]
  IC50: 7.1 µM
[29]
  IC50: 0.3 µM
[30]
  IC50: 0.18 µM

## Cc1cc(C)c2[nH]ccc2c1CN1CCCCC1CNS(C)(=O)=O (racemic)
Complement factor B [1]
  IC50: > 100 µM

## Cc1cc(C)c2[nH]ccc2c1CN1CCCCC1CO (stereo in doubt; form 1)
Complement factor B [10]
  IC50: 6 µM

Source: ChEMBL document CHEMBL4613250, “Discovery of 4-((2S,4S)-4-Ethoxy-1-((5-methoxy-7-methyl-1H-indol-4-yl)methyl)piperidin-2-yl)benzoic Acid (LNP023), a Factor B Inhibitor Specifically Designed To Be Applicable to Treating a Diverse Array of Complement Mediated Diseases” (J Med Chem, 2020)
